Consider 5 molecules from patent publication US20260258402A1, “DEVICE FOR DETERMINING MOLECULAR INTERACTIONS” (Depixus SAS, priority 2023, published 2026).

In assay [1] the target is E3 ligase CEREBLON (in complex with its binding partner DDB1), the neo-target GSPT1 (Homo sapiens, UniProt P15170+Q96SW2). The experiment in a line: Tertiary complex formation between CRBN/DDB1 and GSPT1 with a molecular glue, on the nucleic acid scaffold (force cycles). The conditions noted are these: for formation / stabilization of the tertiary complex CEREBLON-DDB1 / GSPT1 in the presence of the molecular glue: FIG. 27 and 28, force reduced to 0.01 pN to allow interaction.
Chain of E3 ligase CEREBLON (in complex with its binding partner DDB1), the neo-target GSPT1 (Q96SW2 whole entry): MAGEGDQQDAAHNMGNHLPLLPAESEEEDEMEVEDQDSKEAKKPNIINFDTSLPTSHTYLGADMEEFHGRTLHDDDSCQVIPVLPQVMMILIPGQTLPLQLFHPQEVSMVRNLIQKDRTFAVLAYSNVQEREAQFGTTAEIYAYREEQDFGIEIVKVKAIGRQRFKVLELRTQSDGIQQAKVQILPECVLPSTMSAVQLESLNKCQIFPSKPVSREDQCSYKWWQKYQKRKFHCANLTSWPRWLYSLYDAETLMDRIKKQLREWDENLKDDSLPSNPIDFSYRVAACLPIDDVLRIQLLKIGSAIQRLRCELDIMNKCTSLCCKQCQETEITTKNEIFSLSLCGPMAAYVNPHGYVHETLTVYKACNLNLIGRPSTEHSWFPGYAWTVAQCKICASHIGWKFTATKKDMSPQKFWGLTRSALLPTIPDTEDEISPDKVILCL
Chain of E3 ligase CEREBLON (in complex with its binding partner DDB1), the neo-target GSPT1 (Q16531 whole entry partner): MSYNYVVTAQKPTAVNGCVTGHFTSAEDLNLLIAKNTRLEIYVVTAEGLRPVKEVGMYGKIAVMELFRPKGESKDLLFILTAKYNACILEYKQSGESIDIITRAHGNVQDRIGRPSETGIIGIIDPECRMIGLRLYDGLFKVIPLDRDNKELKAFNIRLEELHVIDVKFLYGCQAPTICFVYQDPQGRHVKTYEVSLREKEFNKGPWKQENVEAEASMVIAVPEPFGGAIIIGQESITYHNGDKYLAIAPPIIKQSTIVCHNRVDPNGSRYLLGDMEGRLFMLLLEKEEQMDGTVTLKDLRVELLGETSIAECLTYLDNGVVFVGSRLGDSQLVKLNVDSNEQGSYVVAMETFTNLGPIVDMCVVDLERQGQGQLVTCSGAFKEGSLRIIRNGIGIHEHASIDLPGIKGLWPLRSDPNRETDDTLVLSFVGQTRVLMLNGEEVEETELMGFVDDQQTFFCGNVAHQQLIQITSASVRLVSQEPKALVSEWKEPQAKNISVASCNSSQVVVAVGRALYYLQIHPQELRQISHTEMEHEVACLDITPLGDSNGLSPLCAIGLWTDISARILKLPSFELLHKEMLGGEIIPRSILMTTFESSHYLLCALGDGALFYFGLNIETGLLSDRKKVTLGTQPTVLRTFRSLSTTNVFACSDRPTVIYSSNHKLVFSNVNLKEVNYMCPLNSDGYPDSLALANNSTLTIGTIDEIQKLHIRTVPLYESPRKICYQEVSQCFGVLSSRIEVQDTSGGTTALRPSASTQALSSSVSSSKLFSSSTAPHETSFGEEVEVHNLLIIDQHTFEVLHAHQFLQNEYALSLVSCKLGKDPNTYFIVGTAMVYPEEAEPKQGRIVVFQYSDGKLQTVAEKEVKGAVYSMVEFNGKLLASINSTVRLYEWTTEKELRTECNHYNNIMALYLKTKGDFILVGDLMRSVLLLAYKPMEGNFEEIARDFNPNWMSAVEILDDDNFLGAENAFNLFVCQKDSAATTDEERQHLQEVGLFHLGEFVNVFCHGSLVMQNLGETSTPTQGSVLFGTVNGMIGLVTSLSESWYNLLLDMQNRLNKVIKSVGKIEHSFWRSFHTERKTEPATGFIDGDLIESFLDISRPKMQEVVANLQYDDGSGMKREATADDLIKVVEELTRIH
Chain of E3 ligase CEREBLON (in complex with its binding partner DDB1), the neo-target GSPT1 (P15170 whole entry): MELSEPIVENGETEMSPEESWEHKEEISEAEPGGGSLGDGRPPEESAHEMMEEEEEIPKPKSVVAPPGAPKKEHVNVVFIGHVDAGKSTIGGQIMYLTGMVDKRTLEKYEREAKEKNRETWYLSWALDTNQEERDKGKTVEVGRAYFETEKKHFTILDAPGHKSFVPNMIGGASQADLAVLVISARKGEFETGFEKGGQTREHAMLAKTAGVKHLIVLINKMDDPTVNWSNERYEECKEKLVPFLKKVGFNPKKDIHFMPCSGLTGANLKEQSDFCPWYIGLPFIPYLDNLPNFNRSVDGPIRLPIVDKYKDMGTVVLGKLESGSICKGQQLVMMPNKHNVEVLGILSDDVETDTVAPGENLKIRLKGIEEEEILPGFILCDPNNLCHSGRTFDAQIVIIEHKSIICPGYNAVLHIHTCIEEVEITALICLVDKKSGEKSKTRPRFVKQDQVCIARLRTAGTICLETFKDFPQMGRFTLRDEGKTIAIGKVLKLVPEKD
Experimental: (§2) Briefly, a reference elongation length of a nucleic acid scaffold present in a flow cell was determined at a constant force. Next, a single stranded polynucleotide containing the complementary sequence of the first molecule binding sequence as well as an amine group at the 5′ end (SEQ ID NO: 23) was coupled to candidate protein (CRBN and its binding partner DDB1 that form the E3 ligase complex) by a covalent conjugation (esterification via EDC). In parallel, a second single stranded polynucleotide containing the complementary sequence of the second molecule binding sequence as well as an amine group at the 3′ end (SEQ ID NO: 34) was coupled to candidate protein (GSTP1 neo-substrat of CRBN) by a covalent conjugation (esterification via EDC). A first candidate molecule conjugated to a first polynucleotide and a second candidate molecule covalently conjugated to a second polynucleotide are sequentially injected into the flow cell to anchor them on to the nucleic acid scaffold and form a screening nucleic acid scaffold (FIGS. 27 and 28). Then, a force of 2 pN was applied to determine the maximal elongation length. The force was then reduced to 0.01 pN to allow the two proteins to interact. If the two candidate molecules have binding interaction between them, upon increasing the force back to 2 pN, the elongation observed would be less than the full extension of the screening nucleic acid scaffold. If the two candidate molecules have no binding interaction between them or weaker binding interaction between them than the applied force, the nucleic acid scaffold would fully stretch. The two proteins are not believed to have a native interaction. […] Various concentration of compound can be performed to measure the Kon and Koff of interaction in presence of the compound.

In assay [2] the target is E3 ligase CEREBLON (in complex with its binding partner DDB1), the neo-substrate IKAROS1 (Homo sapiens, UniProt Q13422+Q96SW2).
Chain of E3 ligase CEREBLON (in complex with its binding partner DDB1), the neo-substrate IKAROS1 (Q13422 whole entry): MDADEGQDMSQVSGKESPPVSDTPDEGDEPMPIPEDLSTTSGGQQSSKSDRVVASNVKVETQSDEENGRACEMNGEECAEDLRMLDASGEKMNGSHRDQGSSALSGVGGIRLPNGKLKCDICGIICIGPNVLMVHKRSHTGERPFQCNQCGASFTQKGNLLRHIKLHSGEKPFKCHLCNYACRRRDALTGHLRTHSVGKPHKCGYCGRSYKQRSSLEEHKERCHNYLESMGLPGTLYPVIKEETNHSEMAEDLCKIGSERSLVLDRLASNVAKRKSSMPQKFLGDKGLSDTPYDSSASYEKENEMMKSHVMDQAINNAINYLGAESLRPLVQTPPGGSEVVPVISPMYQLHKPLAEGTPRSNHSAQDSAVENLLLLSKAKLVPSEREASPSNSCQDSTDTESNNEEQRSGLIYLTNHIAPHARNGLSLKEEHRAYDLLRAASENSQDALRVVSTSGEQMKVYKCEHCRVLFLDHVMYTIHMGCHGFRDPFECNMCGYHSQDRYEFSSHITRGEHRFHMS
Chain of E3 ligase CEREBLON (in complex with its binding partner DDB1), the neo-substrate IKAROS1 (Q16531 whole entry, further chain): as the sequence (Q16531 whole entry partner) above
Chain of E3 ligase CEREBLON (in complex with its binding partner DDB1), the neo-substrate IKAROS1 (Q96SW2 whole entry): as the sequence (Q96SW2 whole entry) above
Experimental: as §2
In assay [3] the test system is double stranded blunt end substrates. The experiment in a line: NHEJ complex formation on two double stranded blunt end substrates on the scaffold (force cycles). The format is binding. The conditions noted are these: for role in the complex formed on the blunt end adapters: FIG. 25B, Ku70/80 and APFL injected together, 2 pN. The protocol:
The system described in Example 1 and Example 2 was used for determining binding kinetics between two substrates and proteins that form a Non-Homologous End Joining (NHEJ) complex. The NHEJ complex recognizes double stranded blunt ends and repair these lesions in the cell. Accordingly, two substrates, each comprising a single stranded carrier polynucleotide and a candidate molecule comprising a double stranded blunt end were prepared, wherein the single stranded carrier polynucleotide was complementary to a molecule binding sequence of a nucleic acid scaffold. The double stranded blunt end was prepared by annealing twice two oligos together (SEQ ID NOS: 14 and 15, as well as SEQ ID NOS: 17 and 18 at 10 μM each in PBS).
Because each of the proposed sequences contained the glue sequence for first and second molecule binding sequence respectively, the substrates could be directed to a specific location on the nucleic acid scaffold. Accordingly, the two substrates for the NHEJ complex were anchored to two molecule binding sequences of the nucleic acid scaffold to form a screening nucleic acid scaffold. The excess substrates were washed away. A reference elongation length of a screening nucleic acid scaffold was determined by applying 2 pN force in the absence of the substrates.
(§1) Next, two candidate proteins, KU70/80 complex as well as the APFL protein together into PBS 1X, were injected within the flow cell. The flow was stop and force cycles experiments were initiated. Blockage traces were recorded at 0.1 pN and 2 pN. At 0.1 pN force, the screening nucleic acid scaffold was unstructured, which allowed the two blunt ends to be brought in close proximity. […] Because the method was a non-destructive process, the force cycles were repeated multiple times to further probe the interaction.
The system described in Example 1 and Example 2 was used for determining binding kinetics between two substrates and proteins that form a Non-Homologous End Joining (NHEJ) complex. The NHEJ complex recognizes double stranded blunt ends and repairs these lesions in the cell. Accordingly, two substrates, each comprising a single stranded carrier polynucleotide and a candidate molecule comprising a double stranded blunt end were prepared, wherein the single stranded carrier polynucleotide was complementary to a molecule binding sequence of a nucleic acid scaffold. The two double stranded blunt end adapters were prepared by annealing in two separate tubes two oligos together (SEQ ID NOS: 14 and 15, as well as SEQ ID NOS: 17 and 18 at 10 μM each in a buffer containing: 50 mM NaCl, 10 mM Tris-HCl, 10 mM MgCl2, 1 mM DTT at pH 7.9 @ 25° C.).
Because the proposed system was based on the protein complex recognizing blunt ends DNA, the substrates could be directed to a specific location on the nucleic acid scaffold. Accordingly, the two substrates for the NHEJ complex were anchored to two molecule binding sequences of the nucleic acid scaffold to form a screening nucleic acid scaffold. The excess substrates were washed away. A reference elongation length of a screening nucleic acid scaffold was determined by applying force cycles at three step forces: 0.01, 2 and 20 pN force in the absence of the substrates.
as §1, with “a buffer containing: 20 mM Hepes-KOH PH7.8, 100 mM KCL, 5 mM MgCl2, 1 mM DTT, 0.5 mg/mL BSA, and they” for “PBS 1X,”, “Force cycles” for “Blockage traces”, “were the force varies between three plateau: 0.01 pN, 2” for “at 0.1”, “20 pN (FIG. 25A).” for “2 pN.”, “0.01” for “0.1”

Where [4] appears, read: Example 3, both proteins injected together in PBS 1X, force cycles 0.1 pN and 2 pN.
Where [5] appears, read: Example 12, both proteins injected together, force cycles 0.01, 2 and 20 pN.

In the case of `Cc1ccc(NC(=O)NCc2ccc3c(c2)CN(C2CCC(=O)NC2=O)C3=O)cc1Cl` (centres unmarked) [CC885], the “force needed to break the tertiary complex” value in assay [1] (FIG. 27, CEREBLON-DDB1 / GSPT1) turned out to be 20 pN. Moreover, the “time to reform the complex when the force is reduced to 0.01 pN” value in assay [1] (FIG. 27, after breaking at 20 pN) is listed as “few second”. Also, the “formation / stabilization of the tertiary complex CEREBLON-DDB1 / GSPT1 in the presence of the molecular glue” value in assay [1] is “greatly stabilizes the complex”.

Turning to `Nc1cccc2c1C(=O)N(C1CCC(=O)NC1=O)C2=O` (centres unmarked) [pomalidomide], in assay [2] (FIG. 29), the “force the tertiary complex can sustain” value was “up to 2 pN” and the “formation of the tertiary complex CEREBLON-DDB1 / IKAROS1 upon addition of the molecular glue” value was “strong tertiary complex is formed”. Further, the “interaction between CRBN E3 ligase and IKZF1 in presence of the compound” value in assay [2] (compound at 1 nM) is “the interaction was observed”.

In the case of `O=C1CCC(N2C(=O)c3ccccc3C2=O)C(=O)N1` (centres unmarked) [thalidomide], the “formation / stabilization of the tertiary complex CEREBLON-DDB1 / GSPT1 in the presence of the molecular glue” value in assay [1] is listed as “possible to observe formation of the tertiary complex”. Besides, the “strength of the tertiary complex interaction (in words)” value in assay [1] (FIG. 28, compared with CC885) was “the interaction is weaker and can be broken even at low force”.

“KU70/80: KU70/80 complex, which binds at the double stranded breaks (NHEJ)”: the “blockage of scaffold stretching (complex on the two blunt end substrates)” value in assay [3] (setting [4]) and in assay [3] (setting [5]) was “one or more transient blockages were observed” each time. In addition, in assay [3], the “role in the complex formed on the blunt end adapters” value is “form at the blunt end of both adapters”.

B1: APFL: APFL protein that bridges Ku70/80 complexes in the NHEJ complex (protein, UniProt Q8IW19 1-511, looked up)
Aprataxin and PNK-like factor: MSGGFELQPRDGGPRVALAPGETVIGRGPLLGITDKRVSRRHAILEVAGGQLRIKPIHTNPCFYQSSEKSQLLPLKPNLWCYLNPGDSFSLLVDKYIFRILSIPSEVEMQCTLRNSQVLDEDNILNETPKSPVINLPHETTGASQLEGSTEIAKTQMTPTNSVSFLGENRDCNKQQPILAERKRILPTWMLAEHLSDQNLSVPAISGGNVIQGSGKEEICKDKSQLNTTQQGRRQLISSGSSENTSAEQDTGEECKNTDQEESTISSKEMPQSFSAITLSNTEMNNIKTNAQRNKLPIEELGKVSKHKIATKRTPHKEDEAMSCSENCSSAQGDSLQDESQGSHSESSSNPSNPETLHAKATDSVLQGSEGNKVKRTSCMYGANCYRKNPVHFQHFSHPGDSDYGGVQIVGQDETDDRPECPYGPSCYRKNPQHKIEYRHNTLPVRNVLDEDNDNVGQPNEYDLNDSFLDDEEEDYEPTDEDSDWEPGKEDEEKEDVEELLKEAKRFMKRK
Take B1: the “blockage of scaffold stretching (complex on the two blunt end substrates)” value in assay [3] (setting [4]) and in assay [3] (setting [5]) was “one or more transient blockages were observed” in each case. Further, in assay [3], the “role in the complex formed on the blunt end adapters” value was “bridges these complexes”.
